Experiment [1] relates to Human betaherpesvirus 5. The experiment can be described thus: Antiviral activity against human cytomegalovirus infected HEL cells after 7 days by. To be noted: Human betaherpesvirus 5, HEL, 168 h. The experiment is classed as functional, organism-based.
Experiment [2] concerns HEL. The experiment can be described thus: Cytotoxicity against HEL cells by MTT assay. The format is cell-based. Particulars: Homo sapiens.
Experiment [3] deals with Salmonella enterica. The experiment can be described thus: Antibacterial activity against Salmonella enteritidis ATCC 13076 at 250 ug/ml by disk diffusion method. The format is functional, organism-based. To be noted: Salmonella enterica subsp. enterica serovar Enteritidis.
Experiment [4] relates to P388. Description: Cytotoxicity against mouse P388 cells by MTT assay. The format is functional, cell-based.
Experiment [5] has as its system HT-29. The experiment can be described thus: Cytotoxicity against human HT-29 cells by MTT assay. The experiment is classed as functional, cell-based.

This is an account of results in ChEMBL document CHEMBL1154903, “Cembranoids from the octocoral Sarcophyton ehrenbergi” (J Nat Prod, 2010).

Each structure is given as a SMILES string. Active and inactive are the calls of the source. No cut-off for these calls is given here. Some results are limits rather than exact numbers.

Take `COC(C)(C)/C1=C/C=C(\C)CC[C@@H]2O[C@@]2(C)CC/C=C(/C(=O)O)CC1` [EHRENBEROXIDE A]: the 50% inhibitory concentration (IC50) in experiment [1] is 24.8 µM; in experiment [2], over 50 µg/mL; in experiment [4], over 50 µg/mL; in experiment [5], over 50 µg/mL. In addition, the outcome in experiment [3] was inactive.

With `C/C1=C\C=C(\C(C)C)CC[C@@]2(C)O[C@H](C1)C[C@@](C)(O)CC[C@@H]2O` [EHRENBEROXIDE B], the 50% inhibitory concentration (IC50) was 4.7 µM in experiment [1], over 50 µg/mL in experiment [2], over 50 µg/mL in experiment [4] and over 50 µg/mL in experiment [5]. The result in experiment [3] was inactive.

Regarding `COC(=O)/C1=C/CC/C(C)=C/[C@@H]2OCC(C)=C2CC[C@@]2(C)O[C@@H]2CC1` [LOBOPHYNIN C], the IC50 in experiment [1] is 5.8 µM; in experiment [2], over 50 µg/mL; in experiment [4], over 50 µg/mL; in experiment [5], over 50 µg/mL. In experiment [3], the result was inactive.
